This note sets out measurements from US7858644B2, “EP4 receptor antagonists” (Asterand UK Limited, priority 2003, dated 2010).

One test addresses T1, human EP2 receptor (Homo sapiens, UniProt P43116).
T1 construct: expressed in transfected cells
Briefly: Binding ability to human EP2 receptor ([3H]PGE2 displacement). The following applies: read-out: pKi EP2 (converted). The protocol:
(§1) Membranes were prepared from cells stably transfected with human EP receptor cDNA. In brief, cells were cultured to confluency, scraped from culture flasks, and centrifuged (800 g, 8 minutes, 4° C.). Cells were twice washed in ice cold homogenisation buffer containing 10 mMTris-HCl, 1 mM EDTA. 2Na, 250 mM sucrose, 1 mM PMSF, 0.3 mM indomethacin, pH 7.4, homogenised and re-centrifuged as before. The supernatant was stored on ice and pellets re-homogenised and re-spun. Supernatants were pooled and centrifuged at 40000 g, 10 minutes, 4° C. Resultant membrane pellets were stored at −80° C. until use.
(§2) For assay, membranes expressing human EP4, EP3, EP2 or EP1 receptors were incubated in Millipore (MHVBN45) plates containing assay buffer, radiolabelled [^3H]PGE2 and 0.1 to 10 000 nM concentrations of compounds. Incubations were performed at suitable temperatures and for suitable times to allow equilibrium to be reached. Non-specific binding was determined in the presence of 10 uM PGE2. Bound and free radiolabel was separated by vacuum manifold filtration using appropriate wash buffers, and bound radiolabel was determined by scintillation counting. Constituents of each of the buffers are included in table 1 below.
(§3) This approach follows that set out in Kenakin, T. P., Pharmacologic analysis of drug receptor interaction. Raven Press, New York, 2nd edition.

In a further test the target is T2, human EP3 receptor (Homo sapiens, UniProt P43115).
T2 construct: expressed in transfected cells
T2 sequence (P43115 1-390): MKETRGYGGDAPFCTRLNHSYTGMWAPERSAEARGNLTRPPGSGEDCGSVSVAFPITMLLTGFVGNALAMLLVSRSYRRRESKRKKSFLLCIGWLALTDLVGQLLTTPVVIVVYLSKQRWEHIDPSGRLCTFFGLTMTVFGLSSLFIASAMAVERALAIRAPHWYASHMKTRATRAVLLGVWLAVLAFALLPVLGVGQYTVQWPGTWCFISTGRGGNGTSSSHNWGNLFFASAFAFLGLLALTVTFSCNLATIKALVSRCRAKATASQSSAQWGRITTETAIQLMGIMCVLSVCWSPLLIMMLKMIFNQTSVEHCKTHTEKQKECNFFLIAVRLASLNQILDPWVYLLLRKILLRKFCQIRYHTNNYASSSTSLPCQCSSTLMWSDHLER
The experiment in a line: Binding ability to human EP3 receptor ([3H]PGE2 displacement). The following applies: membranes from cells stably transfected with human EP receptor cDNA; [3H]PGE2 2.5 nM; Cheng-Prusoff from IC50; read-out: pKi EP3 (converted). How it is done:
as §1, §2, §3

T1 sequence (P43116 whole entry): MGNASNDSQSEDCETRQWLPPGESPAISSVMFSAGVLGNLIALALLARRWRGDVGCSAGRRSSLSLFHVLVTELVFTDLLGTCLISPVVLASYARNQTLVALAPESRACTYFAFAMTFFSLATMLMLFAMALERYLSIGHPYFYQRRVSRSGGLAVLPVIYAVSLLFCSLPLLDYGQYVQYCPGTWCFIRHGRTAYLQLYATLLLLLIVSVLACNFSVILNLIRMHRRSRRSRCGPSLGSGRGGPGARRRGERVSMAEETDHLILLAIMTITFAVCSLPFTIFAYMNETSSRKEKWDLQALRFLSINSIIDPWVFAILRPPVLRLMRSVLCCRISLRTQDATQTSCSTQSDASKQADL

Consider `CC(=O)c1ccc(-c2ccc(OCc3cc(C(=O)NS(=O)(=O)c4ccccc4)oc3C)cc2)cc1` [Compound 22, N-[4-(4′-Acetyl-biphenyl-4-yloxymethyl)-5-methyl-furan-2-carbonyl]-benzenesulfonamide], for which the Ki on human EP2 receptor and on human EP3 receptor was over 10 µM each time.
Consider `Cc1oc(C(=O)O)cc1COc1ccc(-c2ccc(Cl)cc2)cc1` [Compound 27, 4-(4′-Chloro-biphenyl-4-yloxymethyl)-5-methyl-furan-2-carboxylic acid], for which the results for the Ki on human EP2 receptor and on human EP3 receptor were over 3.16 µM and over 10 µM, respectively.
For `Cc1oc(C(=O)O)cc1COc1ccc(-c2ccc3c(c2)OCO3)cc1` [Compound 28, 4-(4-Benzo[1,3]dioxol-5-yl-phenoxymethyl)-5-methyl-furan-2-carboxylic acid] the same measures were over 10 µM and over 10 µM.
In the case of `Cc1oc(CCC(=O)O)cc1COc1ccc(-c2ccccc2)cc1` [Compound 37, 3-[4-(Biphenyl-4-yloxymethyl)-5-methyl-furan-2-yl]-propionic acid], the Ki at human EP2 receptor and at human EP3 receptor was over 10 µM in each case.
Turning to `COc1ccc(-c2ccc(OCc3cc(C(=O)O)oc3C)cc2)nc1` [Compound 53, 4-[4-(5-Methoxy-pyridin-2-yl)-phenoxymethyl]-5-methyl-furan-2-carboxylic acid], the Ki at human EP2 receptor and on human EP3 receptor was over 10 µM throughout.
In the case of `Cc1oc(C(=O)O)cc1COc1ccc(-c2ccc(C#N)cc2)cc1` [Compound 57, 4-(4′-Cyano-biphenyl-4-yloxymethyl)-5-methyl-furan-2-carboxylic acid], the Ki at human EP2 receptor and on human EP3 receptor was over 10 µM throughout.
On to `COc1ccc(-c2ccc(OCc3cc(C(=O)NS(=O)(=O)CCCN4CCOCC4)oc3C)cc2)cc1` [Compound 59, 3-Morpholin-4-yl-propane-1-sulphonic acid [4-(4′-methoxy-biphenyl-4-yloxymethyl)-5-methyl-furan-2-carbonyl]-amide], for which the Ki on human EP2 receptor and on human EP3 receptor was over 10 µM in each case.
Regarding `Cc1oc(C(=O)O)cc1CCOc1ccc(-c2ccccc2)cc1` [Compound 72, 4-[2-(Biphenyl-4-yloxy)-ethyl]-5-methyl-furan-2-carboxylic acid], the Ki on human EP2 receptor and at human EP3 receptor was over 10 µM throughout.
`O=C(O)c1cc(COc2ccc(-c3ccccc3)cc2)co1` [Compound 77, 4-(Biphenyl-4-yloxymethyl)-furan-2-carboxylic acid]: the Ki on human EP2 receptor and on human EP3 receptor was over 10 µM in each case.
For `CC(C)c1oc(C(=O)O)cc1COc1ccc(-c2ccccc2)cc1` [Compound 85, 4-(Biphenyl-4-yloxymethyl)-5-isopropyl-furan-2-carboxylic acid], the Ki on human EP2 receptor and on human EP3 receptor was over 10 µM each time.
On to `O=C(O)c1cc(COc2ccc(-c3ccccc3)cc2)c(C(F)(F)F)o1` [Compound 90, 4-(Biphenyl-4-yloxymethyl)-5-trifluoromethyl-furan-2-carboxylic acid], for which the Ki at human EP2 receptor and on human EP3 receptor was over 10 µM throughout.
`COc1ccc(-c2ccc(OCc3cc(C(=O)O)oc3C)cc2)cc1OC` [Compound 96, 4-(3′,4′-Dimethoxy-biphenyl-4-yloxymethyl)-5-methyl-furan-2-carboxylic acid]: the Ki on human EP2 receptor and on human EP3 receptor was over 10 µM in each case.
With `Cc1oc(C(=O)O)cc1COc1ccc(-c2ccc(CO)cc2)cc1` [Compound 110, 4-(4′-Hydroxymethyl-biphenyl-4-yloxymethyl)-5-methyl-furan-2-carboxylic acid], the Ki at human EP2 receptor and at human EP3 receptor was over 10 µM each time.
For the compound `Cc1oc(C(=O)O)cc1COc1ccc(-c2ccc(OC(F)(F)F)cc2)cc1` [Compound 114, 5-Methyl-4-(4′-trifluoromethoxy-biphenyl-4-yloxymethyl)-furan-2-carboxylic acid], the Ki at human EP2 receptor and at human EP3 receptor was over 10 µM in each case.
As to `COc1cccc(-c2ccc(OCc3cc(C(=O)O)oc3C)cc2)c1` [Compound 116, 4-(3′-Methoxy-biphenyl-4-yloxymethyl)-5-methyl-furan-2-carboxylic acid], the Ki on human EP2 receptor and at human EP3 receptor was over 10 µM in each case.
For `COc1ccc(-c2ccc(OCc3cc(C(=O)NS(=O)(=O)N(C)C)oc3C)cc2)cc1` [Compound 122, N-[4-(4′-Methoxy-biphenyl-4-yloxymethyl)-5-methyl-furan-2-carbonyl]-dimethylamino-sulphonamide], the Ki on human EP2 receptor and at human EP3 receptor was over 10 µM throughout.
For `COc1ccccc1-c1ccc(OCc2cc(C(=O)O)oc2C)cc1` [Compound 126, 4-(2′-Methoxy-biphenyl-4-yloxymethyl)-5-methyl-furan-2-carboxylic acid], the Ki at human EP2 receptor and at human EP3 receptor was over 10 µM in each case.
`COc1ccccc1-c1ccc(OCc2cc(C(=O)NS(=O)(=O)c3ccccc3)oc2C)cc1` [Compound 127, N-[4-(2′-Methoxy-biphenyl-4-yloxymethyl)-5-methyl-furan-2-carbonyl]-benzenesulphonamide]: the Ki at human EP2 receptor and at human EP3 receptor was over 10 µM throughout.
For the compound `Cc1oc(C(=O)O)cc1COc1ccc(-c2ccc(OC(F)F)cc2)cc1` [Compound 129, 4-(4′-Difluoromethoxy-biphenyl-4-yloxymethyl)-5-methyl-furan-2-carboxylic acid], the Ki on human EP2 receptor and on human EP3 receptor was over 10 µM throughout.
`Cc1oc(C(=O)NS(=O)(=O)c2ccccc2)cc1COc1ccc(-c2ccc(OC(F)F)cc2)cc1` [Compound 130, N-[4-(4′-Difluoromethoxy-biphenyl-4-yloxymethyl)-5-methyl-furan-2-carbonyl]-benzenesulphonamide]: the results for the Ki at human EP2 receptor and at human EP3 receptor were over 3.16 µM and over 10 µM, respectively.
In the case of `Cc1noc(C)c1S(=O)(=O)NC(=O)c1cc(COc2ccc(-c3ccc(OC(F)F)cc3)cc2)c(C)o1` [Compound 131, 3,5-Dimethyl-isoxazole-4-sulphonic acid [4-(4′-difluoromethoxy-biphenyl-4-yloxymethyl)-5-methyl-furan-2-carbonyl]-amide], the Ki on human EP2 receptor is over 3.16 µM; on human EP3 receptor, over 10 µM.
The matching figures for `COc1ccc(-c2ccc(OCc3cc(C(=O)NS(=O)(=O)c4ccccc4)oc3C)cc2)nc1` [Compound 132, N-{4-[4-(5-Methoxy-pyridin-2-yl)-phenoxymethyl]-5-methyl-furan-2-carbonyl}-benzenesulphonamide]: over 10 µM and over 10 µM.
As for `COc1ccc(-c2ccc(OCc3cc(C(=O)NS(=O)(=O)c4c(C)noc4C)oc3C)cc2)nc1` [Compound 133, 3,5-Dimethyl-isoxazole-4-sulphonic acid {4-[4-(5-methoxy-pyridin-2-yl)-phenoxymethyl]-5-methyl-furan-2-carbonyl}-amide], the Ki on human EP2 receptor and on human EP3 receptor was over 10 µM in each case.
With `COc1ccc(-c2ccc(OCc3cc(C(=O)NS(=O)(=O)c4ccccc4C)oc3C)cc2)nc1` [Compound 134, N-{4-[4-(5-Methoxy-pyridin-2-yl)-phenoxymethyl]-5-methyl-furan-2-carbonyl}-2-methyl-benzenesulphonamide], the Ki on human EP2 receptor and on human EP3 receptor was over 10 µM throughout.
Turning to `COc1ccc(-c2ccc(OCc3cc(C(=O)NS(=O)(=O)c4ccccc4)oc3C)cc2)c(C)c1` [Compound 145, N-[4-(4′-Methoxy-2′-methyl-biphenyl-4-yloxymethyl)-5-methyl-furan-2-carbonyl]-benzenesulphonamide], the Ki at human EP2 receptor and at human EP3 receptor was over 10 µM in each case.
Turning to `COc1ccc(-c2ccc(OCc3cc(C(=O)NS(=O)(=O)c4c(C)noc4C)oc3C)cc2)c(C)c1` [Compound 146, 3,5-Dimethyl-isoxazole-4-sulphonic acid [4-(4′-methoxy-2′-methyl-biphenyl-4-yloxymethyl)-5-methyl-furan-2-carbonyl]-amide], the Ki at human EP2 receptor and at human EP3 receptor was over 10 µM each time.
With `Cc1oc(C(=O)NS(=O)(=O)c2ccccc2)cc1CNc1ccc(-c2ccccc2)cc1` [Compound 161, N-[4-(biphenyl-4-ylaminomethyl)-5-methyl-furan-2-carbonyl]-benzenesulphonamide], the Ki at human EP2 receptor and on human EP3 receptor was over 10 µM throughout.
Regarding `Cc1ccccc1S(=O)(=O)NC(=O)c1cc(CNc2ccc(-c3ccccc3)cc2)c(C)o1` [Compound 162, N-[4-(Biphenyl-4-ylaminomethyl)-5-methyl-furan-2-carbonyl]-2-methyl-benzenesulfonamide], the Ki on human EP2 receptor and at human EP3 receptor was over 10 µM in each case.
